PubChem BioAssay AID248 (DTP/NCI, 2004)
Inconclusive results and toxic doses are left out. No stated cut-off is given here; in the data, active means T/C of 150% or more; inactive means T/C below 125%.

Tested on: L1210 leukemia ip in BDF1 mice, survival T/C
Assay: NCI In Vivo Anticancer Drug Screen. Data for tumor model L1210 Leukemia (intraperitoneal) in B6D2F1 (BDF1) mice
Conditions: endpoint: mean survival time, higher = longer survival
Procedure, shortened: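 Mice bearing the transplanted tumor received compound or vehicle. Survival of the treated group was divided by that of the vehicle-treated control group to give the ratio.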

[1] = dose: 100.0 mg/kg/injection, schedule: Q01DX009 (ip), vehicle: saline with Tween-80
[2] = dose: 200.0 mg/kg/injection, schedule: Q01DX009 (ip), vehicle: saline with Tween-80
[3] = dose: 400.0 mg/kg/injection, schedule: Q01DX009 (ip), vehicle: saline with Tween-80
[4] = dose: 25.0 mg/kg/injection, schedule: Q01DX009 (ip), vehicle: saline with Tween-80
[5] = dose: 50.0 mg/kg/injection, schedule: Q01DX009 (ip), vehicle: saline with Tween-80
[6] = dose: 100.0 mg/kg/injection, schedule: Q04DX003 (ip), vehicle: saline with Tween-80
[7] = dose: 100.0 mg/kg/injection, schedule: Q01DX001 (ip), vehicle: saline
[8] = dose: 200.0 mg/kg/injection, schedule: Q01DX001 (ip), vehicle: saline
[9] = dose: 400.0 mg/kg/injection, schedule: Q01DX001 (ip), vehicle: saline
[10] = dose: 200.0 mg/kg/injection, schedule: Q04DX003 (ip), vehicle: saline with Tween-80
[11] = dose: 400.0 mg/kg/injection, schedule: Q04DX003 (ip), vehicle: saline with Tween-80
[12] = dose: 100.0 mg/kg/injection, schedule: Q04DX003 (ip), vehicle: other
[13] = dose: 200.0 mg/kg/injection, schedule: Q04DX003 (ip), vehicle: other
[14] = dose: 400.0 mg/kg/injection, schedule: Q04DX003 (ip), vehicle: other
[15] = dose: 100.0 mg/kg/injection, schedule: Q04DX002 (ip), vehicle: Klucel (hydroxypropylcellulose) (HPC)
[16] = dose: 200.0 mg/kg/injection, schedule: Q04DX002 (ip), vehicle: Klucel (hydroxypropylcellulose) (HPC)
[17] = dose: 400.0 mg/kg/injection, schedule: Q04DX002 (ip), vehicle: Klucel (hydroxypropylcellulose) (HPC)
[18] = dose: 100.0 mg/kg/injection, schedule: Q01DX009 (ip), vehicle: Klucel (hydroxypropylcellulose) (HPC)
[19] = dose: 100.0 mg/kg/injection, schedule: Q04DX003 (ip), vehicle: Klucel (hydroxypropylcellulose) (HPC)
[20] = dose: 200.0 mg/kg/injection, schedule: Q04DX003 (ip), vehicle: Klucel (hydroxypropylcellulose) (HPC)
[21] = dose: 400.0 mg/kg/injection, schedule: Q04DX003 (ip), vehicle: Klucel (hydroxypropylcellulose) (HPC)

Measured: T/C

N=C(N)c1cccc(OCCCc2ccccc2)c1
inactive: dose: 100.0 mg/kg/injection, schedule: Q01DX001 (ip), vehicle: Klucel (hydroxypropylcellulose) (HPC) 100 % of control | dose: 200.0 mg/kg/injection, schedule: Q01DX001 (ip), vehicle: Klucel (hydroxypropylcellulose) (HPC) 97 % of control | dose: 400.0 mg/kg/injection, schedule: Q01DX001 (ip), vehicle: Klucel (hydroxypropylcellulose) (HPC) 100 % of control

CNS(=O)(=O)c1cccc(C(N)=S)c1
inactive: dose: 100.0 mg/kg/injection, schedule: Q01DX001 (ip), vehicle: saline with Tween-80 105 % of control | dose: 200.0 mg/kg/injection, schedule: Q01DX001 (ip), vehicle: saline with Tween-80 100 % of control | dose: 400.0 mg/kg/injection, schedule: Q01DX001 (ip), vehicle: saline with Tween-80 100 % of control

CN(C)CCP(=O)(O)O
inactive: [1] 96 % of control | [2] 95 % of control | [3] 91 % of control

CN(C)c1ccc(C=Nc2ccccc2)cc1
inactive: dose: 100.0 mg/kg/injection, schedule: Q01DX001 (ip), vehicle: other 98 % of control | dose: 200.0 mg/kg/injection, schedule: Q01DX001 (ip), vehicle: other 102 % of control | dose: 400.0 mg/kg/injection, schedule: Q01DX001 (ip), vehicle: other 108 % of control

N#Cc1oc2ccccc2c1O
inactive: [4] 92 % of control | [5] 96 % of control | [1] 92 % of control | [6] 103 % of control

CC(C)(C)C(=O)Oc1ccc2ccccc2c1
inactive: dose: 75.0 mg/kg/injection, schedule: Q04DX002 (ip), vehicle: gum acacia 105 % of control | dose: 150.0 mg/kg/injection, schedule: Q04DX002 (ip), vehicle: gum acacia 92 % of control | dose: 300.0 mg/kg/injection, schedule: Q04DX002 (ip), vehicle: gum acacia 123 % of control

CC(C)(C)OC(=O)N1C2c3ccccc3C1C1C2N=NN1c1ccccc1 (stereo not given)
inactive: [7] 110 % of control | [8] 95 % of control | [9] 91 % of control

CN(C)c1nc(N)nc2c1nc(Cl)n2C1OC(CO)C(O)C1O (stereo not given)
inactive: [7] 97 % of control | [8] 94 % of control | [9] 105 % of control

OCC[CH2][Sn]([c]1ccccc1)([c]1ccccc1)[c]1ccccc1
inactive: dose: 6.25 mg/kg/injection, schedule: Q04DX002 (ip), vehicle: saline with Tween-80 101 % of control | dose: 12.5 mg/kg/injection, schedule: Q04DX002 (ip), vehicle: saline with Tween-80 101 % of control | dose: 25.0 mg/kg/injection, schedule: Q04DX002 (ip), vehicle: saline with Tween-80 87 % of control | [5] 96 % of control | [1] 96 % of control | [2] 96 % of control

O=C1OC2(c3ccccc31)c1ccccc1-c1ccccc12
inactive: [6] 97 % of control | [10] 89 % of control

CC1NCCCNCCCNC(C)c2cccc1n2 (stereo not given)
inactive: dose: 12.5 mg/kg/injection, schedule: Q04DX002 (ip), vehicle: saline 92 % of control | dose: 25.0 mg/kg/injection, schedule: Q04DX002 (ip), vehicle: saline 89 % of control

CN(C)C=NC1(c2ccccc2)CCCCC1
inactive: [4] 96 % of control | [5] 96 % of control

COCCN1CCC(CO)C1 (stereo not given)
inactive: [7] 93 % of control | [8] 98 % of control | [9] 93 % of control

NC(N)=N/N=C\c1ccc2ccccc2c1
inactive: [6] 100 % of control | [11] 88 % of control

CN(C)C1(Cc2ccc(Cl)cc2)c2ccccc2-c2ccccc21
inactive: dose: 100.0 mg/kg/injection, schedule: Q01DX009 (ip), vehicle: other 94 % of control | [12] 105 % of control | dose: 200.0 mg/kg/injection, schedule: Q01DX009 (ip), vehicle: other 98 % of control | [13] 100 % of control | dose: 400.0 mg/kg/injection, schedule: Q01DX009 (ip), vehicle: other 104 % of control | [14] 115 % of control

CC(C)(C)NCC1C(c2ccccc2)C1c1ccccc1 (stereo not given)
inactive: dose: 25.0 mg/kg/injection, schedule: Q04DX002 (ip), vehicle: Klucel (hydroxypropylcellulose) (HPC) 92 % of control | dose: 50.0 mg/kg/injection, schedule: Q04DX002 (ip), vehicle: Klucel (hydroxypropylcellulose) (HPC) 88 % of control

CC12OC(=O)CC1CC(=O)O2 (stereo not given)
inactive: dose: 100.0 mg/kg/injection, schedule: Q01DX001 (ip), vehicle: saline sonified 101 % of control | dose: 100.0 mg/kg/injection, schedule: Q01DX009 (ip), vehicle: saline sonified 109 % of control | dose: 200.0 mg/kg/injection, schedule: Q01DX001 (ip), vehicle: saline sonified 95 % of control | dose: 200.0 mg/kg/injection, schedule: Q01DX009 (ip), vehicle: saline sonified 105 % of control | dose: 400.0 mg/kg/injection, schedule: Q01DX001 (ip), vehicle: saline sonified 92 % of control | dose: 400.0 mg/kg/injection, schedule: Q01DX009 (ip), vehicle: saline sonified 102 % of control

O=C(CCC(=O)Nc1ccc(Cl)c(Cl)c1)Nc1ccc(Cl)c(Cl)c1
inactive: [15] 93 % of control | [16] 89 % of control | [17] 104 % of control

O=C(O)c1cc(C(=O)O)cc(S(=O)(=O)F)c1
inactive: [1] 92 % of control | [6] 91 % of control | [2] 88 % of control | [10] 86 % of control | [3] 97 % of control | [11] 99 % of control

CNc1ccccc1CO
inactive: [12] 95 % of control | [13] 104 % of control | [14] 107 % of control

CS(=O)(=O)OCCN(CCOS(C)(=O)=O)c1ccc(C=Nc2ccc(-c3cnc(-c4ccc(Cl)cc4)s3)cc2)c(Cl)c1
inactive: dose: 25.0 mg/kg/injection, schedule: Q01DX009 (ip), vehicle: Klucel (hydroxypropylcellulose) (HPC) 98 % of control | dose: 50.0 mg/kg/injection, schedule: Q01DX009 (ip), vehicle: Klucel (hydroxypropylcellulose) (HPC) 107 % of control | [18] 109 % of control

Oc1c(Cl)cc(C(c2cc(Cl)c(O)c(Cl)c2)c2ccccn2)cc1Cl
inactive: [19] 100 % of control | [20] 104 % of control | [21] 93 % of control

CC(C)C12CCC(C)(O1)C(O)C2O (stereo not given)
inactive: [7] 111 % of control | [8] 104 % of control | [9] 106 % of control

O=S1(=O)CC(Cl)(Br)C1 (tested in a mixture with another compound)
inactive: [15] 94 % of control | [16] 97 % of control | [17] 89 % of control

ClC1(Cl)Cc2ccccc21
inactive: [1] 97 % of control | dose: 177.0 mg/kg/injection, schedule: Q04DX003 (ip), vehicle: saline with Tween-80 98 % of control | [2] 96 % of control | [10] 101 % of control | dose: 266.0 mg/kg/injection, schedule: Q04DX003 (ip), vehicle: saline with Tween-80 98 % of control | [3] 96 % of control | [11] 98 % of control | dose: 600.0 mg/kg/injection, schedule: Q04DX003 (ip), vehicle: saline with Tween-80 110 % of control

CNC(=S)N(N)c1ccccc1
inactive: [18] 104 % of control | [19] 93 % of control | dose: 200.0 mg/kg/injection, schedule: Q01DX009 (ip), vehicle: Klucel (hydroxypropylcellulose) (HPC) 101 % of control | [20] 103 % of control | [21] 101 % of control

Cn1c(=O)c2c(ncn2C)n(C)c1=O
inactive: dose: 25.0 mg/kg/injection, schedule: Q01DX Z (ip), vehicle: saline 92 % of control | dose: 50.0 mg/kg/injection, schedule: Q01DX Z (ip), vehicle: saline 90 % of control | [1] 93 % of control | dose: 100.0 mg/kg/injection, schedule: Q01DX Z (ip), vehicle: saline 92 % of control | dose: 115.0 mg/kg/injection, schedule: Q01DX001 (ip), vehicle: saline 97 % of control | dose: 175.0 mg/kg/injection, schedule: Q01DX001 (ip), vehicle: saline 111 % of control | [2] 95 % of control | dose: 200.0 mg/kg/injection, schedule: Q01DX Z (ip), vehicle: saline 90 % of control | dose: 265.0 mg/kg/injection, schedule: Q01DX001 (ip), vehicle: saline 103 % of control

Cc1cc(C)c(N2C(=O)CC(Sc3ccccc3N)C2=O)c(C)c1 (stereo not given)
inactive: [6] 105 % of control | [10] 109 % of control | [11] 98 % of control
